Patent US11192877B2, “3-(5-hydroxy-1-oxoisoindolin-2-yl)piperidine-2,6-dione derivatives and uses thereof” (Novartis AG, priority 2018, dated 2021)

What follows are compounds tested against IKZF2 (Helios) (Homo sapiens, UniProt Q96SW2+Q9UKS7) (assay: Prolabel quantification of IKZF2 protein levels in 293GT cells). Details: 24 h, Pro-label assay, 293GT cells, 10 μM, read-out: IKZF2 % protein reduction at 10 μM, 24 h.
Chain of IKZF2 (Helios) (Q9UKS7 whole entry): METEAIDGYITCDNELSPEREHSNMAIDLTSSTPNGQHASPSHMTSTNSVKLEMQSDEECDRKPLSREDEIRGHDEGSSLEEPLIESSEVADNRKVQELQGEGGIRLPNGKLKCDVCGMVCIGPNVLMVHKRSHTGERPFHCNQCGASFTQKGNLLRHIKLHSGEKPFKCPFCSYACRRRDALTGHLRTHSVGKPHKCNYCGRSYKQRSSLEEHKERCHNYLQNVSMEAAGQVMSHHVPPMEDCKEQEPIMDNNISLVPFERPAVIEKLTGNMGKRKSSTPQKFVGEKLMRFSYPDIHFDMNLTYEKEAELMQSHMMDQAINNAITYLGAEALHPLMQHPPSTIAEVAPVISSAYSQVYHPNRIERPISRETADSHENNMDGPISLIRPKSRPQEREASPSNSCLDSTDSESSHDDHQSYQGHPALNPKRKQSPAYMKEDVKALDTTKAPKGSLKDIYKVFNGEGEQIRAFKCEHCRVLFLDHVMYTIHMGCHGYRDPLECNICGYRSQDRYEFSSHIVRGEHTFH
Chain of IKZF2 (Helios) (Q96SW2 whole entry): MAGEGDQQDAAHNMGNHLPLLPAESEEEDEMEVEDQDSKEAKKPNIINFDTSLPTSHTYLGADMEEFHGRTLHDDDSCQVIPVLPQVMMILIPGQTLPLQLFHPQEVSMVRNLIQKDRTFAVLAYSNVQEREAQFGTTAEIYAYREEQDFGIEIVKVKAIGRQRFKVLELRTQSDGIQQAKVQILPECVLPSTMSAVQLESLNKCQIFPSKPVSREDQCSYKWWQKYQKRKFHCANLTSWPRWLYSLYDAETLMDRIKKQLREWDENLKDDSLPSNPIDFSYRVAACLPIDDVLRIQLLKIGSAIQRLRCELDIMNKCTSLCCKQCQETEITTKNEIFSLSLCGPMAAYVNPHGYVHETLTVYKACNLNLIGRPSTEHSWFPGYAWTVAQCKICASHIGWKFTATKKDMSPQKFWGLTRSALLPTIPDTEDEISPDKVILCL
Chain of IKZF2 (Helios) (Q16531 whole entry partner): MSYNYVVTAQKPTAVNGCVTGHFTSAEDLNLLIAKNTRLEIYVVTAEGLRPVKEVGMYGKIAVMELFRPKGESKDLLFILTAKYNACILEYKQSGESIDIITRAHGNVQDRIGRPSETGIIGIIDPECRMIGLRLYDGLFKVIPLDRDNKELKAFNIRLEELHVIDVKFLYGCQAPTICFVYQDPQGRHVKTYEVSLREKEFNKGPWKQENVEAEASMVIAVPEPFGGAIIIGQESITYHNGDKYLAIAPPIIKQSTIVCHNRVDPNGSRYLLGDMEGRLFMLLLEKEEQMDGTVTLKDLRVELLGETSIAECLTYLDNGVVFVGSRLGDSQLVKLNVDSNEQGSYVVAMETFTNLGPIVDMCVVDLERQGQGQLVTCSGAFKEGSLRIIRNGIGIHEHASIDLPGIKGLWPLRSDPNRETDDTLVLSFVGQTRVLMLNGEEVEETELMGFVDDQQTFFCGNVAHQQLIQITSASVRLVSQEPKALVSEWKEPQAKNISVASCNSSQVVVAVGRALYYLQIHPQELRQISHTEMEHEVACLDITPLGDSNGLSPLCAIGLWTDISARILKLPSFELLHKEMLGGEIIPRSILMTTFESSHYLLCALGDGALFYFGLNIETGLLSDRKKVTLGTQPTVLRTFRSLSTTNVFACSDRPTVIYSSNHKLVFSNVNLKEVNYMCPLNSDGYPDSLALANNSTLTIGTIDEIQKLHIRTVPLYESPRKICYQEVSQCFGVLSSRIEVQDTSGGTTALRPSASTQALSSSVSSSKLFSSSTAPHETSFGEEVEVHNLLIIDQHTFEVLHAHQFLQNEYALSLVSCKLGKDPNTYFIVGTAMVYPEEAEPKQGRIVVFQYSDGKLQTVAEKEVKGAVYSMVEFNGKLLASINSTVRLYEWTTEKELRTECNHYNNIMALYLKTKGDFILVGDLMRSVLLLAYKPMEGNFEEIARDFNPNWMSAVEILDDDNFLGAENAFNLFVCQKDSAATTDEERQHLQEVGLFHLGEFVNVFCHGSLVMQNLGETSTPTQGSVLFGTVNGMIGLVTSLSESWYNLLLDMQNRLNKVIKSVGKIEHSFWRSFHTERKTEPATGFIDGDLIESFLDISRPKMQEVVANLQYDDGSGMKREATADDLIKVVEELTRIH
Assay type: cell-based
Compound `O=C1CCC(N2Cc3cc(O[C@H]4CCC[C@@H]4N4CCOCC4)ccc3C2=O)C(=O)N1` (stereo partly drawn) [I-33, 3-(5-(((1S,2S)-2-morpholinocyclopentyl)oxy)-1-oxoisoindolin-2-yl)piperidine-2,6-dione] has an IKZF2 % protein reduction at 10 µM of 55%. `O=C1CCC(N2Cc3cc(O[C@H]4CCCC[C@@H]4N(Cc4ccccc4)Cc4ccccc4)ccc3C2=O)C(=O)N1` (stereo partly drawn) [I-34, 3-(5-(((1S,2S)-2-(dibenzylamino)cyclohexyl)oxy)-1-oxoisoindolin-2-yl)piperidine-2,6-dione] gave an IKZF2 % protein reduction at 10 µM of 0%. With `CCN(CC)[C@H]1CCCC[C@H]1Oc1ccc2c(c1)CN(C1CCC(=O)NC1=O)C2=O` (stereo partly drawn) [I-35, 3-(5-(((1R,2S)-2-(diethylamino)cyclohexyl)oxy)-1-oxoisoindolin-2-yl)piperidine-2,6-dione] the IKZF2 % protein reduction at 10 µM was 10%. In the case of `CN[C@H]1CCCC[C@@H]1Oc1ccc2c(c1)CN(C1CCC(=O)NC1=O)C2=O` (stereo partly drawn) [I-36, 3-(5-(((1S,2S)-2-(methylamino)cyclohexyl)oxy)-1-oxoisoindolin-2-yl)piperidine-2,6-dione], the IKZF2 % protein reduction at 10 µM is reported as 80%. Compound `CC1(C#N)CCN([C@H]2CCC[C@@H]2Oc2ccc3c(c2)CN(C2CCC(=O)NC2=O)C3=O)CC1` (stereo partly drawn) [I-38, 1-((1S,2S)-2-((2-(2,6-dioxopiperidin-3-yl)-1-oxoisoindolin-5-yl)oxy)cyclopentyl)-4-methylpiperidine-4-carbonitrile] has an IKZF2 % protein reduction at 10 µM of 86%. `CN(Cc1ccccc1)[C@H]1CCCC[C@@H]1Oc1ccc2c(c1)CN(C1CCC(=O)NC1=O)C2=O` (stereo partly drawn) [I-39, 3-(5-(((1S,2S)-2-(benzyl(methyl)amino)cyclohexyl)oxy)-1-oxoisoindolin-2-yl)piperidine-2,6-dione] showed an IKZF2 % protein reduction at 10 µM of 57%. Work on `CCN(CC)[C@@H]1CCC[C@H]1Oc1ccc2c(c1)CN(C1CCC(=O)NC1=O)C2=O` (stereo partly drawn) [I-43, 3-(5-(((1R,2R)-2-(diethylamino)cyclopentyl)oxy)-1-oxoisoindolin-2-yl)piperidine-2,6-dione] yielded an IKZF2 % protein reduction at 10 µM of 0%. `N[C@H]1COC[C@@H]1Oc1ccc2c(c1)CN(C1CCC(=O)NC1=O)C2=O` (stereo partly drawn) [I-46, 3-(5-(((3R,4S)-4-aminotetrahydrofuran-3-yl)oxy)-1-oxoisoindolin-2-yl)piperidine-2,6-dione] gave an IKZF2 % protein reduction at 10 µM of 0%. `CCN(CC)[C@H]1COC[C@@H]1Oc1ccc2c(c1)CN(C1CCC(=O)NC1=O)C2=O` (stereo partly drawn) [I-47, 3-(5-(((3R,4S)-4-(diethylamino)tetrahydrofuran-3-yl)oxy)-1-oxoisoindolin-2-yl)piperidine-2,6-dione] was tested, and the IKZF2 % protein reduction at 10 µM was 11%. `CCOC1CN([C@H]2CCCC[C@@H]2Oc2ccc3c(c2)CN(C2CCC(=O)NC2=O)C3=O)C1` (stereo partly drawn) [I-48, 3-(5-(((1S,2S)-2-(3-ethoxyazetidin-1-yl)cyclohexyl)oxy)-1-oxoisoindolin-2-yl)piperidine-2,6-dione] gave an IKZF2 % protein reduction at 10 µM of 89%. `O=C1CCC(N2Cc3cc(O[C@H]4CCCC[C@@H]4N4CC(OCC(F)(F)F)C4)ccc3C2=O)C(=O)N1` (stereo partly drawn) [I-49, 3-(1-oxo-5-(((1S,2S)-2-(3-(2,2,2-trifluoroethoxy)azetidin-1-yl)cyclohexyl)oxy)isoindolin-2-yl)piperidine-2,6-dione] was tested, and the IKZF2 % protein reduction at 10 µM was 86%. Compound `O=C1CCC(N2Cc3cc(O[C@H]4CCCC[C@@H]4N4CC(OCC(F)F)C4)ccc3C2=O)C(=O)N1` (stereo partly drawn) [I-50, 3-(5-(((1S,2S)-2-(3-(2,2-difluoroethoxy)azetidin-1-yl)cyclohexyl)oxy)-1-oxoisoindolin-2-yl)piperidine-2,6-dione] has an IKZF2 % protein reduction at 10 µM of 85%. For `O=C1CCC(N2Cc3cc(O[C@H]4CCCC[C@@H]4N4CC(OCC5CC5)C4)ccc3C2=O)C(=O)N1` (stereo partly drawn) [I-51, 3-(5-(((1S,2S)-2-(3-(cyclopropylmethoxy)azetidin-1-yl)cyclohexyl)oxy)-1-oxoisoindolin-2-yl)piperidine-2,6-dione], the IKZF2 % protein reduction at 10 µM was 90%. `O=C1CCC(N2Cc3cc(O[C@H]4CCC[C@@H]4N4CC(OCc5ccccc5)C4)ccc3C2=O)C(=O)N1` (stereo partly drawn) [I-52, 3-(5-(((1S,2S)-2-(3-(benzyloxy)azetidin-1-yl)cyclopentyl)oxy)-1-oxoisoindolin-2-yl)piperidine-2,6-dione] showed an IKZF2 % protein reduction at 10 µM of 89%. Work on `CC(C)OC1CN([C@H]2CCCC[C@@H]2Oc2ccc3c(c2)CN(C2CCC(=O)NC2=O)C3=O)C1` (stereo partly drawn) [I-53, 3-(5-(((1S,2S)-2-(3-isopropoxyazetidin-1-yl)cyclohexyl)oxy)-1-oxoisoindolin-2-yl)piperidine-2,6-dione] yielded an IKZF2 % protein reduction at 10 µM of 88%. With `O=C1CCC(N2Cc3cc(O[C@H]4CCCC[C@@H]4N4CC(OCc5ccccc5)C4)ccc3C2=O)C(=O)N1` (stereo partly drawn) [I-54, 3-(5-(((1S,2S)-2-(3-(benzyloxy)azetidin-1-yl)cyclohexyl)oxy)-1-oxoisoindolin-2-yl)piperidine-2,6-dione] the IKZF2 % protein reduction at 10 µM was 91%. For `CCOC1CN([C@H]2CCCCC[C@@H]2Oc2ccc3c(c2)CN(C2CCC(=O)NC2=O)C3=O)C1` (stereo partly drawn) [I-55, 3-(5-(((1S,2S)-2-(3-ethoxyazetidin-1-yl)cycloheptyl)oxy)-1-oxoisoindolin-2-yl)piperidine-2,6-dione], the IKZF2 % protein reduction at 10 µM was 91%. For `O=C1CCC(N2Cc3cc(O[C@H]4CCCC[C@@H]4N4CC(OC5CC(F)(F)C5)C4)ccc3C2=O)C(=O)N1` (stereo partly drawn) [I-56, 3-(5-(((1S,2S)-2-(3-(3,3-difluorocyclobutoxy)azetidin-1-yl)cyclohexyl)oxy)-1-oxoisoindolin-2-yl)piperidine-2,6-dione], the IKZF2 % protein reduction at 10 µM was 91%. Work on `COC1(C)CCN([C@H]2CCCCC[C@@H]2Oc2ccc3c(c2)CN(C2CCC(=O)NC2=O)C3=O)CC1` (stereo partly drawn) [I-60, 3-(5-(((1S,2S)-2-(4-methoxy-4-methylpiperidin-1-yl)cycloheptyl)oxy)-1-oxoisoindolin-2-yl)piperidine-2,6-dione] yielded an IKZF2 % protein reduction at 10 µM of 61%. `CC(C)CN[C@H]1CCCCC[C@@H]1Oc1ccc2c(c1)CN(C1CCC(=O)NC1=O)C2=O` (stereo partly drawn) [I-61, 3-(5-(((1S,2S)-2-(isobutylamino)cycloheptyl)oxy)-1-oxoisoindolin-2-yl)piperidine-2,6-dione] was tested, and the IKZF2 % protein reduction at 10 µM was 84%. For `CCCN[C@H]1CCCCC[C@@H]1Oc1ccc2c(c1)CN(C1CCC(=O)NC1=O)C2=O` (stereo partly drawn) [I-62, 3-(1-oxo-5-(((1S,2S)-2-(propylamino)cycloheptyl)oxy)isoindolin-2-yl)piperidine-2,6-dione], the IKZF2 % protein reduction at 10 µM was 88%. `O=C1CCC(N2Cc3cc(O[C@H]4CCCCC[C@@H]4N4CC5(COC5)C4)ccc3C2=O)C(=O)N1` (stereo partly drawn) [I-63, 3-(5-(((1S,2S)-2-(2-oxa-6-azaspiro[3.3]heptan-6-yl)cycloheptyl)oxy)-1-oxoisoindolin-2-yl)piperidine-2,6-dione] showed an IKZF2 % protein reduction at 10 µM of 85%. In the case of `CO[C@H]1CC[C@H](CN[C@H]2CCCCC[C@@H]2Oc2ccc3c(c2)CN(C2CCC(=O)NC2=O)C3=O)CC1` (stereo partly drawn) [I-64, 3-(5-(((1S,2S)-2-((((1r,4S)-4-methoxycyclohexyl)methyl)amino)cycloheptyl)oxy)-1-oxoisoindolin-2-yl)piperidine-2,6-dione], the IKZF2 % protein reduction at 10 µM is reported as 84%. `O=C1CCC(N2Cc3cc(O[C@H]4CCCCC[C@@H]4NCC4CCOCC4)ccc3C2=O)C(=O)N1` (stereo partly drawn) [I-65, 3-(1-oxo-5-(((1S,2S)-2-(((tetrahydro-2H-pyran-4-yl)methyl)amino)cycloheptyl)oxy)isoindolin-2-yl)piperidine-2,6-dione] showed an IKZF2 % protein reduction at 10 µM of 76%. `CC1(CN[C@H]2CCCCC[C@@H]2Oc2ccc3c(c2)CN(C2CCC(=O)NC2=O)C3=O)COC1` (stereo partly drawn) [I-66, 3-(5-(((1S,2S)-2-(((3-methyloxetan-3-yl)methyl)amino)cycloheptyl)oxy)-1-oxoisoindolin-2-yl)piperidine-2,6-dione] gave an IKZF2 % protein reduction at 10 µM of 81%. `O=C1CCC(N2Cc3cc(O[C@H]4CCCCC[C@@H]4NCC45CC(F)(C4)C5)ccc3C2=O)C(=O)N1` (stereo partly drawn) [I-67, 3-(5-(((1S,2S)-2-(((3-fluorobicyclo[1.1.1]pentan-1-yl)methyl)amino)cycloheptyl)oxy)-1-oxoisoindolin-2-yl)piperidine-2,6-dione] gave an IKZF2 % protein reduction at 10 µM of 74%. `COC1CN([C@H]2CCCCC[C@@H]2Oc2ccc3c(c2)CN(C2CCC(=O)NC2=O)C3=O)C1` (stereo partly drawn) [I-68, 3-(5-(((1S,2S)-2-(3-methoxyazetidin-1-yl)cycloheptyl)oxy)-1-oxoisoindolin-2-yl)piperidine-2,6-dione] gave an IKZF2 % protein reduction at 10 µM of 90%. `O=C1CCC(N2Cc3cc(O[C@H]4CCCCC[C@@H]4NCC4CC(F)(F)C4)ccc3C2=O)C(=O)N1` (stereo partly drawn) [I-69, 3-(5-(((1S,2S)-2-(((3,3-difluorocyclobutyl)methyl)amino)cycloheptyl)oxy)-1-oxoisoindolin-2-yl)piperidine-2,6-dione] showed an IKZF2 % protein reduction at 10 µM of 84%. In the case of `CCCN[C@H]1CCCC[C@@H]1Oc1ccc2c(c1)CN(C1CCC(=O)NC1=O)C2=O` (stereo partly drawn) [I-71, 3-(1-oxo-5-(((1S,2S)-2-(propylamino)cyclohexyl)oxy)isoindolin-2-yl)piperidine-2,6-dione], the IKZF2 % protein reduction at 10 µM is reported as 88%. With `CCCN(CCC)[C@H]1CCCC[C@@H]1Oc1ccc2c(c1)CN(C1CCC(=O)NC1=O)C2=O` (stereo partly drawn) [I-72, 3-(5-(((1S,2S)-2-(dipropylamino)cyclohexyl)oxy)-1-oxoisoindolin-2-yl)piperidine-2,6-dione] the IKZF2 % protein reduction at 10 µM was 57%. For `O=C1CCC(N2Cc3cc(O[C@H]4CCCC[C@@H]4NCc4ccncc4)ccc3C2=O)C(=O)N1` (stereo partly drawn) [I-73, 3-(1-oxo-5-(((1S,2S)-2-((pyridin-4-ylmethyl)amino)cyclohexyl)oxy)isoindolin-2-yl)piperidine-2,6-dione], the IKZF2 % protein reduction at 10 µM was 66%.

Same assay, conditions: 24 h, read-out: IKZF2 % protein reduction at 10 μM, 24 h
`CCN[C@H]1CCCCC[C@@H]1Oc1ccc2c(c1)CN(C1CCC(=O)NC1=O)C2=O` (stereo partly drawn) [I-57, 3-(5-(((1S,2S)-2-(ethylamino)cycloheptyl)oxy)-1-oxoisoindolin-2-yl)piperidine-2,6-dione] was tested, and the IKZF2 % protein reduction at 10 µM was 80%. For `O=C1CCC(N2Cc3cc(O[C@H]4CCCCC[C@@H]4NCc4ccccc4)ccc3C2=O)C(=O)N1` (stereo partly drawn) [I-58, 3-(5-(((1S,2S)-2-(benzylamino)cycloheptyl)oxy)-1-oxoisoindolin-2-yl)piperidine-2,6-dione], the IKZF2 % protein reduction at 10 µM was 75%. Work on `CCN(CC)[C@H]1CCCCC[C@@H]1Oc1ccc2c(c1)CN(C1CCC(=O)NC1=O)C2=O` (stereo partly drawn) [I-59, 3-(5-(((1S,2S)-2-(diethylamino)cycloheptyl)oxy)-1-oxoisoindolin-2-yl)piperidine-2,6-dione] yielded an IKZF2 % protein reduction at 10 µM of 39%.
